Source: patent US20230012368A1 (Hoffmann-La Roche Inc., priority 2018, published 2023)
Where a name gives a salt, the structure may show the parent alone.

These compounds were tested on Acinetobacter baumannii ATCC 17978 (assay: Antimicrobial susceptibility testing: 90% growth inhibitory concentration (IC90) determination). Conditions: 90% growth inhibitory concentration; Acinetobacter baumannii ATCC17978; Iso-Sensitest broth, OD 600 nm over 16h; read-out: ATCC17978 IC90.
Assay type: cell-based
Method: Antimicrobial Susceptibility Testing:
90% Growth Inhibitory Concentration (IC90) Determination
The in vitro antimicrobial activity of the compounds was determined according to the following procedure:
The assay used a 10-points Iso-Sensitest broth medium to measure quantitatively the in vitro activity of the compounds against Acinetobacter baumannii ATCC 17978 and Acinetobacter baumannii ATCC 17961.
Stock compounds in DMSO were serially twofold diluted (e.g. range from 50 to 0.097 μM final concentration) in 384 wells microtiter plates and inoculated with 49 μl the bacterial suspension in Iso-Sensitest medium to have a final cell concentration of ˜5×10^(5) CFU/ml in a final volume/well of 50 ul/well. Microtiter plates were incubated at 35±2° C.
Bacterial cell growth was determined with the measurement of optical density at λ=600 nm each 20 minutes over a time course of 16h. Growth inhibition was calculated during the logarithmic growth of the bacterial cells with determination of the concentration inhibiting 50% (IC50) and 90% (IC90) of the growth.
Table 1 provides the 90% growth inhibitory concentrations (IC90) in micromoles per liter of the compounds of present invention obtained against the strain Acinetobacter baumannii ATCC17978 and Acinetobacter baumannii ATCC17961.

| Structure (SMILES) | IC90 [nM] |
| --- | --- |
| CCc1cc(Nc2nccn3c(-c4ccc(OC)c(F)c4F)cnc23)ccc1C(=O)NCCN [Example 117, N-(2-aminoethyl)-4-((3-(2,3-difluoro-4-methoxyphenyl)imidazo[1,2-a]pyrazin-8-yl)amino)-2-ethylbenzamide dihydrochloride] | 560 |
| COc1ccc(-c2cnc3c(Nc4ccc(C(=O)N(C)CCCC(=O)N5CCNCC5)c(C)c4)nccn23)cc1F [Example 4, 4-[[3-(3-fluoro-4-methoxy-phenyl)imidazo[1,2-a]pyrazin-8-yl]amino]-N,2-dimethyl-N-(4-oxo-4-piperazin-1-yl-butyl)benzamide] | 290 |

Same assay, conditions: Acinetobacter baumannii, ATCC17978, 16 h, 90% growth inhibitory concentration; Acinetobacter baumannii ATCC17978; Iso-Sensitest broth, OD 600 nm over 16h; read-out: ATCC17978 IC90

| Structure (SMILES) | IC90 [nM] |
| --- | --- |
| CNC(=O)c1ccc(Nc2nccn3c(-c4ccc(OC(F)F)cc4)cnc23)cc1CO [Example 225, 4-[[3-[4-(difluoromethoxy)phenyl]im-idazo[1,2-a]pyrazin-8-yl]amino]-2-(hydroxymethyl)-N-methylbenzamide] | 1100 |
| CCc1cc(Nc2nccn3c(-c4ccc(OC(F)F)c(F)c4F)cnc23)ccc1C(=O)N[C@@H](C)CNC(=O)C1CCN(CC2CNC2)CC1 (racemic) [Example 553, rac-(R)-1-(azetidin-3-ylmethyl)-N-(2-(4-((3-(4-(difluoromethoxy)-2,3-difluorophenyl)imidazo[1,2-a]pyrazin-8-yl)amino)-2-ethylbenzamido)propyl)piper-idine-4-carboxamide formate] | 260 |

The next lines start with the values.

| IC90 [nM] | Structure (SMILES) |
| --- | --- |
| 470 | CCc1cc(Nc2nccn3c(-c4ccc(Oc5ccc(OC)cn5)c(F)c4F)cnc23)ccc1C(=O)NCCNC(=O)CCN [Example 448, N-[2-(3-aminopropanoylamino)ethyl]-4-[[3-[2,3-difluoro-4-[(5-methoxy-2-pyridyl)oxy]phenyl]imidazo [1,2-a]pyrazin-8-yl]amino]-2-ethyl-benzamide; formic acid] |
| 360 | COc1ccc(-c2cnc3c(Nc4ccc(C(=O)NCCCCN)c(C)c4)nccn23)cc1 [Example 194, N-(4-aminobutyl)-4-[[3-(4-methoxyphenyl)imidazo[1,2-a]pyrazin-8-yl]amino]-2-methylbenzamide;hydrochlo-ride] |
| 320 | CCc1cc(Nc2nccn3c(-c4ccc(OC)c(F)c4F)cnc23)ccc1C(=O)N[C@@H](C)CNC(=O)[C@@H](N)CCCCN [Example 453, N-[(1S)-2-[[(2S)-2,6-diaminohexanoyl]amino]-1-methyl-ethyl]-4-[[3-(2,3-difluoro-4-methoxy-phenyl)imidazo[1,2-a]pyrazin-8-yl]amino]-2-ethyl-benzamide] |
| 80 | CCc1cc(Nc2nccn3c(-c4ccc(OC)c(F)c4F)cnc23)ccc1C(=O)NCCCC(=O)N1CCN[C@H](CO)C1 [Example 161, 4-[[3-(2,3-difluoro-4-methoxy-phenyl)imidazo[1,2-a]pyrazin-8-yl]amino]-2-ethyl-N-[4-[(3S)-3-(hydroxymethyl)piperazin-1-yl]-4-oxo-butyl]benzamide] |
| 320 | CCc1cc(Nc2nccn3c(-c4ccc(OC)c(F)c4F)cnc23)ccc1C(=O)NCCNC(=O)[C@@H](N)CN [Example 400, N-[2-[[(2S)-2,3-diaminopropanoyl]amino]eth-yl]-4-[[3-(2,3-difluoro-4-methoxy-phenyl)imidazo[1,2-a]pyrazin-8-yl]amino]-2-ethyl-benzamide; formic acid] |
| 660 | COc1ccc(-c2cnc3c(Nc4ccc(C(=O)NCC5CCNCC5)c(C)c4)nccn23)cc1F [Example 213, 4-[[3-(3-fluoro-4-methoxyphenyl)imidazo[1,2-a]pyrazin-8-yl]amino]-2-methyl-N-(piperidin-4-ylmethyl)benzamide;hydrochlo-ride] |
| 900 | Cc1cc(Nc2nccn3c(-c4ccc(OC(F)F)cc4)cnc23)ccc1C(=O)N(C)CCCSc1nnnn1CCN(C)C [Example 177, 4-[[3-[4-(difluoromethoxy)phenyl]im-idazo[1,2-a]pyrazin-8-yl]amino]-N-[3-[1-[2-(dimethylamino)ethyl]tetrazol-5-yl]sulfanylpropyl]-N,2-dimethylbenzamide;2,2,2-trifluoroacetic acid] |
